Key:
Format in all cases: in vivo
rice (Oryza sativa) = assay: Test B flooded paddy test; conditions: for Plant response rating, Flood, Rice: 250 g ai/ha, flooded paddy test, visual rating on 0 to 100 scale (0 no effect, 100 complete control) after 13 to 15 days; for Plant response rating, Rice: Flood (flooded paddy test), 13 to 15 days
Procedure, shortened: (§1)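 Rice, umbrella sedge, ducksalad and barnyardgrass were grown to the 2-leaf stage, flooded to 3 cm, and compound was applied directly to the paddy water, with that depth kept throughout. After 13 to 15 days in the greenhouse, plants were visually rated against controls on a 0 (no effect) to 100 (complete control) scale.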

[1] = test system: umbrella sedge (Cyperus difformis); assay: Test B flooded paddy test; conditions: for Plant response rating, Flood, Sedge, Umbrella: 250 g ai/ha, flooded paddy test, visual rating on 0 to 100 scale (0 no effect, 100 complete control) after 13 to 15 days; for Plant response rating, Sedge, Umbrella: Flood (flooded paddy test), 13 to 15 days
Procedure, shortened: as §1

[2] = test system: ragweed (common ragweed, Ambrosia elatior); assay: Test B pre-/postemergence plant response
Procedure, shortened: (§2)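 Seeds were sown in loam soil/sand blend and treated preemergence with compound in non-phytotoxic solvent mixture containing surfactant; postemergence sprays, same formulation, went onto plants 2 to 18 cm (1- to 4-leaf stage) in peat-based planting medium. Greenhouse 13 to 15 days, then visual rating versus untreated controls, 0 (no effect) to 100 (complete control).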

[3] = test system: goosegrass (Eleusine indica); assay: Test B pre-/postemergence plant response
Procedure, shortened: as §2

wild oat (Avena fatua) = assay: Test B pre-/postemergence plant response
Procedure, shortened: as §2

[4] = test system: blackgrass (Alopecurus myosuroides); assay: Test B pre-/postemergence plant response
Procedure, shortened: as §2

[5] = test system: green foxtail (Setaria viridis); assay: Test B pre-/postemergence plant response
Procedure, shortened: as §2

[6] = test system: lambsquarters (Chenopodium album); assay: Test B pre-/postemergence plant response
Procedure, shortened: as §2

corn (Zea mays) = assay: Test B pre-/postemergence plant response
Procedure, shortened: as §2

[7] = test system: pigweed (Amaranthus retroflexus); assay: Test B pre-/postemergence plant response
Procedure, shortened: as §2

[8] = test system: Surinam grass (Brachiaria decumbens); assay: Test B pre-/postemergence plant response
Procedure, shortened: as §2

[9] = test system: giant foxtail (Setaria faberii); assay: Test B pre-/postemergence plant response
Procedure, shortened: as §2

[10] = test system: johnsongrass (Sorghum halepense); assay: Test B pre-/postemergence plant response
Procedure, shortened: as §2

[11] = 31 g ai/ha, scale of 0 to 100 where 0 is no effect and 100 is complete control
[12] = 62 g ai/ha, scale 0 to 100, 0 is no effect, 100 is complete control
[13] = 125 g ai/ha, scale 0 to 100, 0 is no effect, 100 is complete control
[14] = 250 g ai/ha, Preemergence, 0 to 100 scale
[15] = Postemergence, 62 g ai/ha, scale 0 (no effect) to 100 (complete control), 13 to 15 days
[16] = Postemergence, 125 g ai/ha, visual rating after 13 to 15 days, scale 0 (no effect) to 100 (complete control)
[17] = Preemergence, 31 g ai/ha, scale 0 to 100 (0 no effect, 100 complete control)
[18] = Preemergence, 125 g ai/ha, 0 to 100 scale
[19] = Postemergence, 250 g ai/ha, scale 0 to 100
[20] = Postemergence, 31 g ai/ha, scale 0 to 100 (0 no effect, 100 complete control)
[21] = Preemergence, 62 g ai/ha, scale 0 to 100 (0 no effect, 100 complete control)

SMILES: Cc1ccccc1-n1c(-c2cccc(Cl)c2)ncc(C(=O)C2=C(O)CCCC2=O)c1=O [Compound 36]
- Plant response rating, Flood, Rice (rice (Oryza sativa)): 35
- Plant response rating, Rice (rice (Oryza sativa); [11]): 0
- Plant response rating, Rice (rice (Oryza sativa); [12]): 0
- Plant response rating, Rice (rice (Oryza sativa); [13]): 20
- Plant response rating, Flood, Sedge, Umbrella [1]: 20
- Plant response rating, Sedge, Umbrella [1, 11]: 0
- Plant response rating, Sedge, Umbrella [1, 12]: 0
- Plant response rating, Sedge, Umbrella [1, 13]: 0
- Plant response rating, Ragweed [2, 14]: 90
- Plant response rating, Ragweed [2, 15]: 90
- Plant response rating, Ragweed [2, 16]: 95
- Plant response rating, Ragweed [2, 17]: 35
- Ragweed plant response rating [2, 18]: 85
- Plant response rating, Goosegrass [3, 14]: 100
- Plant response rating, Goosegrass [3, 15]: 85
- Plant response rating, Goosegrass [3, 16]: 90
- Goosegrass plant response rating [3, 19]: 95
- Plant response rating, Goosegrass [3, 17]: 0
- Goosegrass plant response rating [3, 18]: 95
- Plant response rating, Oat, Wild (wild oat (Avena fatua); [14]): 0
- Plant response rating, Oat, Wild (wild oat (Avena fatua); [15]): 75
- Plant response rating, Oat, Wild (wild oat (Avena fatua); [16]): 75
- Plant response rating, Oat, Wild (wild oat (Avena fatua); [17]): 0
- Oat, Wild plant response rating (wild oat (Avena fatua); [18]): 0
- Plant response rating, Blackgrass [4, 14]: 25
- Plant response rating, Blackgrass [4, 20]: 5
- Plant response rating, Blackgrass [4, 15]: 5
- Plant response rating, Blackgrass [4, 16]: 15
- Blackgrass plant response rating [4, 19]: 15
- Plant response rating, Blackgrass [4, 17]: 20
- Plant response rating, Blackgrass [4, 21]: 25
- Blackgrass plant response rating [4, 18]: 25
- Plant response rating, Foxtail, Green [5, 14]: 85
- Plant response rating, Foxtail, Green [5, 20]: 85
- Plant response rating, Foxtail, Green [5, 15]: 90
- Plant response rating, Foxtail, Green [5, 16]: 90
- Foxtail, Green plant response rating [5, 19]: 90
- Plant response rating, Foxtail, Green [5, 17]: 35
- Plant response rating, Foxtail, Green [5, 21]: 80
- Foxtail, Green plant response rating [5, 18]: 85
- Plant response rating, Lambsquarters [6, 14]: 100
- Plant response rating, Lambsquarters [6, 15]: 100
- Plant response rating, Lambsquarters [6, 16]: 100
- Lambsquarters plant response rating [6, 19]: 100
- Plant response rating, Lambsquarters [6, 17]: 98
- Plant response rating, Lambsquarters [6, 21]: 100
- Lambsquarters plant response rating [6, 18]: 100
- Plant response rating, Corn (corn (Zea mays); [14]): 0
- Plant response rating, Corn (corn (Zea mays); [20]): 50
- Plant response rating, Corn (corn (Zea mays); [15]): 55
- Plant response rating, Corn (corn (Zea mays); [16]): 65
- Corn plant response rating (corn (Zea mays); [19]): 85
- Plant response rating, Corn (corn (Zea mays); [17]): 0
- Plant response rating, Corn (corn (Zea mays); [21]): 0
- Corn plant response rating (corn (Zea mays); [18]): 0
- Plant response rating, Pigweed [7, 14]: 100
- Plant response rating, Pigweed [7, 15]: 85
- Plant response rating, Pigweed [7, 16]: 90
- Plant response rating, Pigweed [7, 17]: 100
- Pigweed plant response rating [7, 18]: 100
- Plant response rating, Surinam Grass [8, 14]: 100
- Plant response rating, Surinam Grass [8, 15]: 85
- Plant response rating, Surinam Grass [8, 16]: 85
- Plant response rating, Surinam Grass [8, 17]: 70
- Surinam Grass plant response rating [8, 18]: 100
- Plant response rating, Foxtail, Giant [9, 14]: 80
- Plant response rating, Foxtail, Giant [9, 20]: 95
- Plant response rating, Foxtail, Giant [9, 15]: 95
- Plant response rating, Foxtail, Giant [9, 16]: 98
- Foxtail, Giant plant response rating [9, 19]: 98
- Plant response rating, Foxtail, Giant [9, 17]: 10
- Plant response rating, Foxtail, Giant [9, 21]: 20
- Foxtail, Giant plant response rating [9, 18]: 65
- Plant response rating, Johnsongrass [10, 14]: 85
- Plant response rating, Johnsongrass [10, 15]: 75
- Plant response rating, Johnsongrass [10, 16]: 85
- Johnsongrass plant response rating [10, 19]: 100
- Plant response rating, Johnsongrass [10, 17]: 0
- Plant response rating, Johnsongrass [10, 21]: 65
- Johnsongrass plant response rating [10, 18]: 80

SMILES: O=C1CCCC(O)=C1C(=O)c1cnc(-c2ccccc2)n(-c2cccc(Br)c2)c1=O [Compound 38]
- Plant response rating, Flood, Rice (rice (Oryza sativa)): 0
- Plant response rating, Rice (rice (Oryza sativa); [11]): 0
- Plant response rating, Rice (rice (Oryza sativa); [12]): 0
- Plant response rating, Rice (rice (Oryza sativa); [13]): 0
- Plant response rating, Flood, Sedge, Umbrella [1]: 40
- Plant response rating, Sedge, Umbrella [1, 11]: 0
- Plant response rating, Sedge, Umbrella [1, 12]: 0
- Plant response rating, Sedge, Umbrella [1, 13]: 30
- Plant response rating, Ragweed [2, 14]: 95
- Plant response rating, Ragweed [2, 15]: 80
- Plant response rating, Ragweed [2, 16]: 80
- Plant response rating, Ragweed [2, 17]: 40
- Ragweed plant response rating [2, 18]: 80
- Plant response rating, Goosegrass [3, 14]: 100
- Plant response rating, Goosegrass [3, 15]: 85
- Plant response rating, Goosegrass [3, 16]: 90
- Goosegrass plant response rating [3, 19]: 95
- Plant response rating, Goosegrass [3, 17]: 95
- Goosegrass plant response rating [3, 18]: 100
- Plant response rating, Oat, Wild (wild oat (Avena fatua); [14]): 20
- Plant response rating, Oat, Wild (wild oat (Avena fatua); [15]): 75
- Plant response rating, Oat, Wild (wild oat (Avena fatua); [16]): 80
- Plant response rating, Oat, Wild (wild oat (Avena fatua); [17]): 0
- Oat, Wild plant response rating (wild oat (Avena fatua); [18]): 0
- Plant response rating, Blackgrass [4, 14]: 40
- Plant response rating, Blackgrass [4, 20]: 5
- Plant response rating, Blackgrass [4, 15]: 15
- Plant response rating, Blackgrass [4, 16]: 15
- Blackgrass plant response rating [4, 19]: 40
- Plant response rating, Blackgrass [4, 17]: 0
- Plant response rating, Blackgrass [4, 21]: 5
- Blackgrass plant response rating [4, 18]: 30
- Plant response rating, Foxtail, Green [5, 14]: 100
- Plant response rating, Foxtail, Green [5, 20]: 85
- Plant response rating, Foxtail, Green [5, 15]: 90
- Plant response rating, Foxtail, Green [5, 16]: 95
- Foxtail, Green plant response rating [5, 19]: 95
- Plant response rating, Foxtail, Green [5, 17]: 20
- Plant response rating, Foxtail, Green [5, 21]: 30
- Foxtail, Green plant response rating [5, 18]: 85
- Plant response rating, Lambsquarters [6, 14]: 100
- Plant response rating, Lambsquarters [6, 15]: 95
- Plant response rating, Lambsquarters [6, 16]: 100
- Lambsquarters plant response rating [6, 19]: 100
- Plant response rating, Lambsquarters [6, 17]: 98
- Plant response rating, Lambsquarters [6, 21]: 98
- Lambsquarters plant response rating [6, 18]: 100
- Plant response rating, Corn (corn (Zea mays); [14]): 0
- Plant response rating, Corn (corn (Zea mays); [20]): 55
- Plant response rating, Corn (corn (Zea mays); [15]): 70
- Plant response rating, Corn (corn (Zea mays); [16]): 75
- Corn plant response rating (corn (Zea mays); [19]): 90
- Plant response rating, Corn (corn (Zea mays); [17]): 0
- Plant response rating, Corn (corn (Zea mays); [21]): 0
- Corn plant response rating (corn (Zea mays); [18]): 0
- Plant response rating, Pigweed [7, 14]: 100
- Plant response rating, Pigweed [7, 15]: 98
- Plant response rating, Pigweed [7, 16]: 98
- Plant response rating, Pigweed [7, 17]: 100
- Pigweed plant response rating [7, 18]: 100
- Plant response rating, Surinam Grass [8, 14]: 80
- Plant response rating, Surinam Grass [8, 15]: 85
- Plant response rating, Surinam Grass [8, 16]: 90
- Plant response rating, Surinam Grass [8, 17]: 40
- Surinam Grass plant response rating [8, 18]: 65
- Plant response rating, Foxtail, Giant [9, 14]: 95
- Plant response rating, Foxtail, Giant [9, 20]: 95
- Plant response rating, Foxtail, Giant [9, 15]: 98
- Plant response rating, Foxtail, Giant [9, 16]: 100
- Foxtail, Giant plant response rating [9, 19]: 100
- Plant response rating, Foxtail, Giant [9, 17]: 0
- Plant response rating, Foxtail, Giant [9, 21]: 40
- Foxtail, Giant plant response rating [9, 18]: 80
- Plant response rating, Johnsongrass [10, 14]: 95
- Plant response rating, Johnsongrass [10, 15]: 75
- Plant response rating, Johnsongrass [10, 16]: 95
- Johnsongrass plant response rating [10, 19]: 100
- Plant response rating, Johnsongrass [10, 17]: 10
- Plant response rating, Johnsongrass [10, 21]: 80
- Johnsongrass plant response rating [10, 18]: 85

Reference: patent US8952024B2, “Herbicidal pyrimidone derivatives” (E I du Pont de Nemours and Company, priority 2009, dated 2015)
